These are literature values, as cited in PubChem BioAssay AID1259409 (Chemical Carcinogenesis Research Information System (CCRIS), 2018).

The data set deals with rodent chemically induced tumor inhibition, incidence and multiplicity. The experiment in a line: CCRIS tumor inhibitor studies. Conditions: Carcinogen: BENZO[A]PYRENE, 50-32-8, Route [Inhibitor]: ORAL, Species: MOUSE, Strain/Sex: STRAIN-A/FEMALE, Promoter: NONE USED.

For `CCCN(CCC)c1c([N+](=O)[O-])cc(C(F)(F)F)cc1[N+](=O)[O-]`, the “tumour outcome (control, treated, inhibition, significance)” value is recorded as 100%, 84%, 16%, not significant (Dose [Inhibitor]: 1000 PPM IN DIET CONTAINING 5% CORN OIL BEGINNING 1 WK PRIOR TO 1ST CARCINOGEN TREATMENT AND CONTINUING FOR 18 WK (STUDY, Target Tissue: Type of Lesion: FORESTOMACH: SQUAMOUS CELL PAPILLOMA, Dose [Carcinogen]: 3 MG IN 0.25 ML CORN OIL AT 10 AND 12 WK OF AGE); 97%, 96%, 1%, not significant (Dose [Inhibitor]: 1000 PPM IN DIET CONTAINING 5% CORN OIL BEGINNING 1 WK PRIOR TO 1ST CARCINOGEN TREATMENT AND CONTINUING FOR 18 WK (STUDY, Target Tissue: Type of Lesion: LUNG: ADENOMA, Dose [Carcinogen]: 3 MG IN 0.25 ML CORN OIL AT 10 AND 12 WK OF AGE); 80%, 32%, 60%, not significant (Dose [Inhibitor]: 1500 PPM IN DIET CONTAINING 5% CORN OIL BEGINNING 1 DAY POST LAST CARCINOGEN DOSE AND CONTINUING FOR 12 WK (STUDY DURATI, Target Tissue: Type of Lesion: LUNG: ADENOMA, Dose [Carcinogen]: 3 MG IN 0.25 ML CORN OIL AT 6 AND 8 WK OF AGE); 100%, 88%, 12%, not significant (Dose [Inhibitor]: 1500 PPM IN DIET CONTAINING 5% CORN OIL BEGINNING 1 WK POST LAST CARCINOGEN DOSE AND CONTINUING FOR 12 WK (STUDY DURATIO, Target Tissue: Type of Lesion: FORESTOMACH: SQUAMOUS CELL PAPILLOMA, Dose [Carcinogen]: 3 MG IN 0.25 ML CORN OIL AT 6 AND 8 WK OF AGE); 92%, 80%, 13%, not significant (Dose [Inhibitor]: 1500 PPM IN DIET CONTAINING 5% CORN OIL BEGINNING 4 D POST LAST CARCINOGEN DOSE AND CONTINUING FOR 12 WK (STUDY DURATION, Target Tissue: Type of Lesion: FORESTOMACH: SQUAMOUS CELL PAPILLOMA, Dose [Carcinogen]: 3 MG IN 0.25 ML CORN OIL AT 6 AND 8 WK OF AGE); 72%, 40%, 44%, not significant (Dose [Inhibitor]: 1500 PPM IN DIET CONTAINING 5% CORN OIL BEGINNING 4 D POST LAST CARCINOGEN DOSE AND CONTINUING FOR 12 WK (STUDY DURATION, Target Tissue: Type of Lesion: LUNG: ADENOMA, Dose [Carcinogen]: 3 MG IN 0.25 ML CORN OIL AT 6 AND 8 WK OF AGE). The “tumour outcome (control, treated, inhibition, significance)” value by setting is: (Dose [Inhibitor]: 1500 PPM IN DIET CONTAINING 5% CORN OIL BEGINNING 7 D POST LAST CARCINOGEN DOSE AND CONTINUING FOR 12 WK (STUDY DURATION, Target Tissue: Type of Lesion: FORESTOMACH: SQUAMOUS CELL PAPILLOMA, Dose [Carcinogen]: 3 MG IN 0.25 ML CORN OIL AT 6 AND 8 WK OF AGE) 100%, 92%, 8%, not significant; (Dose [Inhibitor]: 1500 PPM IN DIET CONTAINING 5% CORN OIL BEGINNING 7 D POST LAST CARCINOGEN DOSE AND CONTINUING FOR 12 WK (STUDY DURATION, Target Tissue: Type of Lesion: LUNG: ADENOMA, Dose [Carcinogen]: 3 MG IN 0.25 ML CORN OIL AT 6 AND 8 WK OF AGE) 72%, 60%, 17%, not significant; (Dose [Inhibitor]: 1500 PPM IN DIET CONTAINING 5% CORN OIL BEGINNING ON DAY OF LAST CARCINOGEN DOSE AND CONTINUING FOR 12 WK (STUDY DURATIO, Target Tissue: Type of Lesion: FORESTOMACH: SQUAMOUS CELL PAPILLOMA, Dose [Carcinogen]: 3 MG IN 0.25 ML CORN OIL AT 6 AND 8 WK OF AGE) 88%, 100%, -14%, not significant; (Dose [Inhibitor]: 1500 PPM IN DIET CONTAINING 5% CORN OIL BEGINNING ON DAY OF LAST CARCINOGEN DOSE AND CONTINUING FOR 12 WK (STUDY DURATIO, Target Tissue: Type of Lesion: LUNG: ADENOMA, Dose [Carcinogen]: 3 MG IN 0.25 ML CORN OIL AT 6 AND 8 WK OF AGE) 76%, 52%, 32%, not significant; (Dose [Inhibitor]: 2000 PPM IN DIET CONTAINING 5% CORN OIL BEGINNING 1 WK PRIOR TO 1ST CARCINOGEN TREATMENT AND CONTINUING FOR 18 WK (STUDY, Target Tissue: Type of Lesion: FORESTOMACH: SQUAMOUS CELL PAPILLOMA, Dose [Carcinogen]: 3 MG IN 0.25 ML CORN OIL AT 10 AND 12 WK OF AGE) 100%, 63%, 37%, not calculated; (Dose [Inhibitor]: 2000 PPM IN DIET CONTAINING 5% CORN OIL BEGINNING 1 WK PRIOR TO 1ST CARCINOGEN TREATMENT AND CONTINUING FOR 18 WK (STUDY, Target Tissue: Type of Lesion: LUNG: ADENOMA, Dose [Carcinogen]: 3 MG IN 0.25 ML CORN OIL AT 10 AND 12 WK OF AGE) 97%, 74%, 24%, not calculated.
